Measured values: patent US20060286159A1 (priority 2003, published 2006)
“Also recorded” adds a separate entry of the source.

Columns and labels:
[1] = test system: chronic non-insertional Achilles tendinopathy; assay: Non-insertional Achilles tendinopathy clinical trial (randomized, double blind, placebo controlled); type: in vivo, human
From the text: (§1) Three clinical trials were approved by an institutional Ethics Committee. Patients with clinical diagnoses of the specified tendinopathies were recruited through newspaper advertisements and private consulting rooms. All subjects were over 18 years of age, and gave written informed consent.
(§2) In the non-insertional Achilles tendinopathy trial, there were 65 patients (84 Achilles tendons) with 40 men and 25 women enrolled in the study, having a median age of 49 years (range 24 to 77 years), and a median duration of symptoms prior to the study of 16 months (range 4 to 147 months). In the extensor tendinopathy trial, there were 86 patients (95 elbows), with 42 males and 44 females, having a median age of 46 years (range 30 to 74 years), and a median duration of symptoms of 17 months (range 3 to 232 months). In the supraspinatus tendinopathy trial, there were 53 patients (57 shoulders), with 24 males and 29 females, having a median age of 52 years (range 25 to 79 years), and a median symptom duration of 14 months (range 4 to 96).
(§3) Diagnostic criteria for patient inclusion in the respective trials were as follows. The diagnosis of chronic non-insertional Achilles tendinopathy was based on an insidious onset of Achilles tendon pain, a tender nodule localized to the region 2 to 6 centimeters from the calcaneal insertion, and an ultrasound examination that excluded a frank tendon tear. The diagnosis of chronic extensor tendinopathy at the elbow was based on an insidious onset of lateral elbow pain, tenderness localized to the lateral humeral epicondyle and extensor carpi radialis brevis tendon, pain in the lateral elbow with resisted wrist or third metacarpophalangeal joint extension, and an ultrasound examination that excluded a frank tendon tear. The diagnosis of chronic supraspinatus tendinopathy was based on positive impingement signs (internal or external rotation), pain with supraspinatus muscle testing, and magnetic resonance imaging (MRI) high signal intensity without frank tear in the supraspinatus tendon.
(§4) Patients were excluded if they had tendinopathy of less than three months duration, current pregnancy, previous surgery on the affected limb or tendon, dislocation of the ipsilateral limb joints, distal neurological signs, a local corticosteroid injection in the previous three months, the current use of nitrate medications or phosphodiesterase inhibitors such as Viagra™, a family history of arthritis other than osteoarthritis, or extra-articular features of seronegative arthropathies. Generally, every participating patient could be considered to have persistent active tendinopathy.
(§5) The patients were randomly allocated into two groups. […] The active and placebo patches were indistinguishable from one another. The randomization was controlled by the senior pharmacist at the institution who also supervised the packaging of transdermal patches and their distribution to patients. Both the patients and the clinical examiner were blinded as to which group the patients were in, i.e. double-blind.
(§6) The transdermal patches were intact when distributed, and patients were required to cut the patches into quarters prior to application. Patients were also given a supply of paracetamol tablets (500 mg), and were instructed to use them exclusively for any headaches experienced.
(§7) Patients were instructed in the application of the patches at their initial visit. They were informed that the dosing regimen was one quarter of a transdermal patch to be applied daily to the skin area closest to the affected tendon. The patches were to be left in situ for 24 hours and then replaced with a new quarter patch. […] Patients were instructed to rotate the patch application site around this point with each new patch application for the six-month study duration in an effort to minimize application site irritation.
(§8) At the initial clinical assessment, all patients were instructed in the performance of a tendon specific rehabilitation program. […]

[2] = test system: chronic supraspinatus tendinopathy; type: in vivo, human
From the text: as §1, §2, §3, §4, §5, §6, §7, §8

[3] = test system: de Quervain's tendinopathy in the right extensor tendons of the thumb; assay: Example 4: patient case, de Quervain's tendinopathy; type: in vivo, human
From the text: A patient suffering de Quervain's tendinopathy in the right extensor tendons of the thumb applies a transdermal patch delivering 10 mcg/hr nitroglycerin for a period of 24 weeks. This condition can be caused due to the arrival of a new baby and the consequent carrying as an unusual daily activity, and as is common, physical therapy and intermittent use of a wrist splint may provide little relief of symptoms.

chronic tennis elbow = assay: Example 5: patient case, chronic tennis elbow; type: in vivo, human; details: patch 60 mcg/hr for 2 weeks
From the text: A patient suffering from chronic tennis elbow applies a transdermal patch delivering 60 mcg/hr nitroglycerin for a period of 2 weeks.

[4] = test system: chronic extensor tendinopathy at the elbow; assay: Extensor tendinopathy (tennis elbow) clinical trial (randomized, double blind, placebo controlled)
[5] = week 24, more patients asymptomatic with activities of daily living than placebo, 1.25 mg/24 h patch + rehabilitation

**Q.** Which results are given for `O=[N+]([O-])OCC(CO[N+](=O)[O-])O[N+](=O)[O-]` [glyceryl trinitrate, 1,2,3-propanetriol trinitrate]?
**A.** Headache (Days) Average ([1]; GTN group): GTN 5 Days; Headache (Days) Median ([1]; GTN group): GTN 4 Days; Headache (Days) Total ([1]; GTN group): 85 days; Headache: percentage of patients ([1]; GTN group): 53%; No Side Effects ([1]; GTN group): GTN 44%; Other Noted Side-Effects: Increase Tinnitus ([1]; GTN group): Tinnitus (3%); Tenderness Outcomes: Achilles tenderness vs placebo ([1]; Week 12 (p=0.02)): significant decreases; also recorded: significantly less; also recorded: Decreased Week; Pain Outcomes: Achilles tendon pain with activity vs placebo ([1]; Week 12 (p=0.02) / 24 (p=0.03)): significant decrease; also recorded: Decreased; Pain Outcomes: night pain vs placebo ([1]; Week 12 (p=0.04)): significant decrease; also recorded: Decreased; Functional Outcomes Measures: Hop Test vs placebo ([1]; Week 24): Increased Hop; Force Outcomes: ORI-ASTS mean plantarflexion total work vs placebo ([1]; Week 24 (p=0.04), from baseline levels): significant increase; also recorded: Increased Mean; Other Noted Side-Effects: Rash ([1]; application site, GTN group): Rash 16%,; number needed to treat (NNT) ([1]; excellent result at 24 weeks, Chi square p=0.001): 3.4; total amount of paracetamol required for headache treatment vs placebo ([1]; p=0.001): significant increases; also recorded: significant between-group differences; Discontinuations: Headache ([1]; patients, all GTN group): Headache 1; Discontinuations: Rash ([1]; patients, all GTN group): Rash,; Paracetamol Average ([1]; used for headache, GTN group): GTN 14 tablets; Paracetamol Median ([1]; used for headache, GTN group): GTN 10 tablets; Paracetamol Total ([1]; used for headache, GTN group): GTN 237 tablets; pain scores after the 10 hop test vs placebo ([1]; week 24 (p=0.005)): significant decrease; Improved Patient Outcomes [1, 5]: 29%; patients with excellent improvement (asymptomatic with activities of daily living), patient reported ([1]; week 24, placebo 49%): 78%; Headache (Days) Average ([2]; GTN group): GTN 6 Days; Headache (Days) Median ([2]; GTN group): GTN 4 Days; Headache (Days) Total ([2]; GTN group): GTN 127 Days; Headache: percentage of patients ([2]; GTN group): (76%); No Side Effects ([2]; GTN group): GTN 30%; Tenderness Outcomes vs placebo ([2]; anteroinferior subacromial tenderness): no significant differences; Other Noted Side-Effects: Rash ([2]; application site, GTN group): Rash 8%; number needed to treat (NNT) ([2]; excellent result at 24 weeks, Chi square p=0.007): 4.5; reported rate of headache and average number of headaches experienced vs placebo ([2]; human, in vivo): significant between-group differences; number of days affected by headache vs placebo ([2]; p=0.001): significant increase; Discontinuations: Headache ([2]; patients, all GTN group): Headache 2; Paracetamol Average ([2]; used for headache, GTN group): GTN 7 tablets; Paracetamol Median ([2]; used for headache, GTN group): GTN 2 tablets; Paracetamol Total ([2]; used for headache, GTN group): GTN 138 tablets; Improved Patient Outcomes [2, 5]: 22%; patients with excellent improvement, patient reported ([2]; week 24, placebo 24%): 46%; pain after administration is stopped ([3]; 2 years after stop, negative Finklestein test): continue to have reduced pain; pain during administration ([3]; patch 10 mcg/hr for 24 weeks, person): decrease in pain within one day; continuation of the reduction of symptoms after discontinuance (chronic tennis elbow): at least two weeks; Headache (Days) Average ([4]; GTN group): GTN 5 Days; Headache (Days) Median ([4]; GTN group): GTN 3 Days; Headache (Days) Total ([4]; GTN group): 136 days; Headache: percentage of patients ([4]; GTN group): 63%; No Side Effects ([4]; GTN group): GTN 35%; Other Noted Side-Effects: Increase Axillary Sweating ([4]; GTN group): Sweating 2%; Pain Outcomes: elbow pain with activity vs placebo ([4]; Week 2 (p=0.01)): significant decrease; also recorded: Decreased; Tenderness Outcomes: lateral epicondylar tenderness vs placebo ([4]; Week 6 (p=0.02) / 12 (p=0.02)): significant decreases; also recorded: significantly less; also recorded: Decreased; Force Outcomes: ORI-TETS mean peak force vs placebo ([4]; Week 24 (p=0.03)): significant increase; also recorded: Increased Mean; Force Outcomes: ORI-TETS mean total work vs placebo ([4]; Week 24 (p=0.03)): significant increase; also recorded: Increased Mean; Other Noted Side-Effects: Rash ([4]; application site, GTN group): Rash 21%,; number needed to treat (NNT) ([4]; excellent result at 24 weeks, Chi square p=0.005): 4.8; Discontinuations: Headache ([4]; patients, all GTN group): Headache 2; Discontinuations: Rash ([4]; patients, all GTN group): Rash 2,; Paracetamol Average ([4]; used for headache, GTN group): GTN 8 tablets; Paracetamol Median ([4]; used for headache, GTN group): GTN 4 tablets; Paracetamol Total ([4]; used for headache, GTN group): GTN 214 tablets; Improved Patient Outcomes [4, 5]: 21%; patients with excellent improvement, patient reported ([4]; week 24, placebo 60%): 81%
